Test results from patent US20080124366A1, “Methods and Compositions for Treating Tumors” (priority 2006, published 2008).
“Also recorded” adds a separate entry of the source.

Legend:
[1] = system: GL261 mouse glioma model; assay: Intratumoral CpG ODN administration in GL261 mouse glioma model; type: in vivo; details: weakly immunogenic GL261 / GL261-Luc model
[2] = system: intracranial GL261-Luc glioma; assay: s.c. vaccination of mice bearing intracranial GL261-Luc glioma, bioluminescent imaging and survival (Example 5); type: in vivo, C57BL/6 mice; details: s.c. days 4, 11, 18
Method: Glioma model and in vivo imaging. Six to seven week old female C57BL/6 mice were purchased from Jackson Laboratory and maintained in a specific pathogen free (SPF) facility according to the guidelines of the University of Minnesota Animal Care and Use Committee (IACUC). For intracranial tumor inoculations, animals were deeply anesthetized with a ketamine/xylazine cocktail solution (53.7 mg/ml ketamine, 9.26 mg/ml xylazine) delivered at 1 ml/kg. 10,000 GL261-Luc cells in 1 μl of PBS were implanted stereotactically into the right striatum; coordinates were 2.2 mm lateral, and 0.5 mm posterior of bregma, and 3 mm ventral from the cortical surface of the brain. For imaging mice were deeply anesthetized by i.p. injection with avertin (225 mg/kg) and injected with 100 μl of luciferin (substrate for luciferase enzyme; 28.5 mg/ml, Xenogen®, Hopkinton, Mass.). Mice were imaged five minutes after luciferin injection using the Ivis 50 system (Xenogen®). […] Luciferase activity was analyzed using living image software (version 2.5; Xenogen®) according to the manufacturer's instructions. […]
Statistical analysis. […] Differences in animal survival between treatment groups were evaluated by log-rank statistical analysis with Sigmastat software (Systat Software, Inc. San Jose, Calif.); only P values <0.05 were considered significant.

[3] = system: cervical lymph node T cells and DCs; assay: Flow cytometry of draining cervical lymph nodes after s.c. vaccination; type: in vivo, C57BL/6 mice; details: vs lysate or normal
Method: Flow cytometry. Normal B6 mice were vaccinated two times, one week apart with CpG/lysate, CpG, lysate, or were not vaccinated as the controls (n=4/group). Six days after the last vaccination, the left and right cervical lymph nodes of each mouse were harvested, counted for LN cell numbers, and analyzed by flow cytometry with various monoclonal antibodies (1 μg/10^6 cells) including FITC-anti-CD3, PE-anti-CD8, APC-anti-CD4, FITC-anti-CD1 1c, PE-anti-CCR7, and APC-anti-CD86 (eBioscience, San Diego, Calif.).
The ability of CpG ODN to activate and mature DCs to elicit T cell-mediated responses has been established. An experiment was conducted to characterize the effects of CpG/lysate vaccination on DCs and T cells in the draining lymph nodes. Normal B6 mice were vaccinated two times, one week apart, by subcutaneous (s.c.) injection with CpG ODN, tumor lysate, or CpG/lysate (n=4/group). Six days after the second vaccination, the draining cervical lymph nodes of each mouse were harvested, counted for total cell number, and analyzed by flow cytometry.

[4] = system: Human brain tumor stem cells; assay: Incubation of human brain tumor stem cells in INF-gamma; type: cell-based

Row | Molecule | efficacy of intratumoral administration [1] | effect on tumor growth or survival [2] | number of activated (CD11c+CD86+/CCR7+) DCs in draining lymph nodes [3] | immunogenicity of cancer stem cells after incubation [4]
1 | 5′-TCGTCGTTTTGTCGTTTTGTCGTT-3′ [CpG ODN] | not effective; also recorded: failed to cause sustained tumor regression | no effect | significant increase | 
2 | INF-gamma: interferon-gamma in which cancer stem cells were incubated (protein, UniProt P01579 24-161, looked up) Interferon gamma: QDPYVKEAENLKKYFNAGHSDVADNGTLFLGILKNWKEESDRKIMQSQIVSFYFKLFKNFKDDQSIQKSVETIKEDMNVKFFNSNKKKRDDFEKLTNYSVTDLNVQRKAIHELIQVMAELSPAAKTGKRKRSQMLFRG |  |  |  | restores their immunogenecity
